Source: US20060030556A1, “Neurokinin-1 receptor antagonists for the treatment of conditions responsive to testosterone elevation, including testosterone deficiency” (SOLVAY PHARMACEUTICALS B.V., priority 2004, published 2006)

Experiments:
[1] = system: NK1 receptors in the tree shrew brain; assay: Nicotine-induced emesis pilot study to establish the dose that blocks NK1 receptors in tree shrew brain; format: in vivo, tree shrews (Tupaia belangen); details: 30 min before s.c. (-)-nicotine 4 mg/kg, episodes counted over following 30 min, n=4 crossover
Procedure: (§1) The experiments were carried out using tree shrews (Tupaia belangen). Experimentally naive adult male tree shrews were obtained from the breeding colony at the German Primate Center (Göttingen, Germany). Animals were housed individually in air-conditioned facilities on a 12 hr/12 hr light/dark cycle with artificial illumination (lights on from 8:00 A.M. to 8:00 P.M.) and with free access to food and water (Fuchs E. “Tree shrews”, In: Poole T, (ed) UFAW handbook on the care and management of laboratory animals Oxford: Blackwell, 235-245, 1999). All treatments were performed during the day (activity period, lights on). Animal experiments were conducted in accordance with the European Communities Council Directive of Nov. 24, 1986 […] and were approved by the Government of Lower Saxony, Germany.
Animals received the NK1 receptor antagonist Compound 1 orally. A pilot study to establish the dose of Compound 1 that blocks NK1 receptors in the tree shrew brain was conducted. The methodology used is based on the ability of NK1 receptor antagonists to block nicotine-induced vomiting in musk shrews (Tattersall et al., Neuropharmacology, 34, 1697-1699, 1995). Adult tree shrews (n=4) received either vehicle or Compound 1 in different dosage orally followed 30 minutes later by subcutaneous administration of (−)-nicotine (4 mg/kg; Sigma), and the number of emetic episodes occurring during the following 30 min was recorded. Each animal received each treatment in a crossover design, with 10 days washout period between studies. Emetic episodes were abolished by treatment with 20 mg/kg per day Compound 1, whereas lower doses, i.e. 5 or 10 mg/kg per day and vehicle were ineffective.

[2] = Serum testosterone in chronic psychosocial stress with concomitant Compound 1 treatment (enzyme-immunoassay); format: in vivo, tree shrews (Tupaia belangen)
Procedure: as §1
The experimental design was as follows: Animals were divided into three experimental groups: ‘Control’, ‘Stress’ and ‘Stress+Compound 1’, each consisting of six tree shrews. The experiment consisted of three different phases and lasted for six weeks (42 days). The first experimental phase went on for 7 days, during which all animals remained undisturbed and body weight was recorded daily. The second phase of the experiment was a 7-day period, during which the animals of the Stress' and the ‘Stress+Compound 1’ group were submitted to daily psychosocial conflict. For the induction of psychosocial conflict one naive male was introduced into the cage of a socially experienced male. After establishment of a clear dominant/subordinate relationship, the two animals were separated by a wire mesh barrier. […]
For determination of testosterone, 100 μl serum was two times extracted with 1 ml of diethylether by vortexing for 10 min. […] 50 μl aliquots of reconstituted extracts were then measured for concentrations of testosterone by enzyme-immunoassay as described by Kraus et al. (Physiol. Behav. 66: 855-861, 1999). […]
Serum testosterone levels were measured from blood samples collected before perfusing the animals. […]

[3] = 20 mg/kg/day oral for 28 days, p<0.05

For `O=C(c1cccc(C(F)(F)F)c1)N1C[C@H]2CC[C@H](N3CCOCC3)CN2C[C@H]1Cc1c[nH]c2ccccc12` [Compound 1], the “emetic episodes after (-)-nicotine” value ([1]; 5 mg/kg per day oral) was “ineffective”, the “emetic episodes after (-)-nicotine” value ([1]; 10 mg/kg per day oral) was “ineffective” and the “emetic episodes after (-)-nicotine” value ([1]; 20 mg/kg per day oral) was “abolished”. For the same molecule, the “serum testosterone concentrations compared to 'Control' animals” value [2, 3] was “two fold increase”, the “testosterone levels compared to the 'Stress' group” value [2, 3] was “six times higher” and the Serum testosterone concentration ([2]; Stress + Compound 1 group, 20 mg/kg/day oral for 28 days during psychosocial stress, n = 6, p<0.05 versus Control and versus Stress) was 6.45 ± 2.00 *# (n = 6) ng/ml.
